Molecular target: T1, HGFR (Homo sapiens, UniProt P08581)
T1 construct: purchased Upstate 14-526
Experiment: HGFR continuous-coupled spectrophotometric assay
Type: biochemical
Conditions: not given

T1 sequence (P08581 974-1390 limits assumed): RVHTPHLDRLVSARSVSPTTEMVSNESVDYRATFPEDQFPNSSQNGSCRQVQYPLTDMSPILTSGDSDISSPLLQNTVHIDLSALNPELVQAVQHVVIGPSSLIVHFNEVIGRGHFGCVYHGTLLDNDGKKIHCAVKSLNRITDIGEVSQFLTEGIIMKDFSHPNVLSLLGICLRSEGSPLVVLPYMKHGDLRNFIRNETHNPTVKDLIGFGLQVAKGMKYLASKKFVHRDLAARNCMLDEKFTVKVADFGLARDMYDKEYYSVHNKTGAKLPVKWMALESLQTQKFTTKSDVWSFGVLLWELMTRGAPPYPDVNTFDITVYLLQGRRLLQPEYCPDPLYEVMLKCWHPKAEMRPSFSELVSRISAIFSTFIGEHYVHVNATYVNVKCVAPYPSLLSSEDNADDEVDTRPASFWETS

| SMILES | inhibition at 1 µM [%] | % inhibition |
| --- | --- | --- |
| Nc1ncc(C(=O)N2CCC(=O)CC2)cc1OCc1c(Cl)cccc1Cl | 44 | – |
| Nc1ncc(-c2ccc(C(=O)N3CCC(N4CCCC4)CC3)cc2)cc1OCc1cc(F)ccc1F | – | % inhibition = 24 |
| Nc1ncc(-c2ccc(C(=O)N3CCC(N4CCCC4)CC3)cc2)cc1OCc1ccc(F)c(F)c1 | – | % inhibition = 19 |
| CC(C)c1ccc(COc2cc(-c3ccc(C(=O)N4CCC(N5CCCC5)CC4)cc3)cnc2N)cc1 | – | % inhibition = 32 |
| Nc1ncc(-c2ccc(C(=O)N3CCC(N4CCCC4)CC3)cc2)cc1OCc1ccccc1-c1ccccc1 | – | % inhibition = 22 |
| Cc1noc(C)c1COc1cc(-c2ccc(C(=O)N3CCC(N4CCCC4)CC3)cc2)cnc1N | – | % inhibition = 10 |
| Nc1ncc(-c2ccc(C(=O)N3CCC(N4CCCC4)CC3)cc2)cc1OCc1ccc(Cl)s1 | – | % inhibition = 19 |
| Nc1ncc(-c2ccc(C(=O)N3CCC(N4CCCC4)CC3)cc2)cc1OCc1ccncc1 | – | % inhibition = 10 |
| Nc1ncc(-c2ccc(C(=O)N3CCC(N4CCCC4)CC3)cc2)cc1OCc1ccc(OCc2ccccc2)cc1 | – | % inhibition = 49 |
| COc1ccc(OC)c(COc2cc(-c3ccc(C(=O)N4CCC(N5CCCC5)CC4)cc3)cnc2N)c1 | – | % inhibition = 19 |
| Nc1ncc(-c2ccc(C(=O)N3CCC(N4CCCC4)CC3)cc2)cc1OCc1nsc(Cl)n1 | – | % inhibition = 5 |
| Nc1ncc(-c2ccc(C(=O)N3CCC(N4CCCC4)CC3)cc2)cc1OCc1nnsc1Cl | – | % inhibition = 10 |
| COc1cc(COc2cc(-c3ccc(C(=O)N4CCC(N5CCCC5)CC4)cc3)cnc2N)cc(OC)c1OC | – | % inhibition = 10 |
| Nc1ncc(-c2ccc(C(=O)N3CCC(N4CCCC4)CC3)cc2)cc1OCc1cc(Cl)cc(Cl)c1 | – | % inhibition = 19 |
| Nc1ncc(-c2ccc(C(=O)N3CCC(N4CCCC4)CC3)cc2)cc1OCc1cccc(Oc2ccccc2)c1 | – | % inhibition = 34 |
| Nc1ncc(-c2ccc(C(=O)N3CCC(N4CCCC4)CC3)cc2)cc1OCc1cccc(Cl)c1Cl | – | % inhibition = 40 |
| Cc1ccc(COc2cc(-c3ccc(C(=O)N4CCC(N5CCCC5)CC4)cc3)cnc2N)cc1Cl | – | % inhibition = 26 |
| Nc1ncc(-c2ccc(C(=O)N3CCC(N4CCCC4)CC3)cc2)cc1OCc1cc(Cl)ccc1Cl | – | % inhibition = 26 |
| Nc1ncc(-c2ccc(C(=O)N3CCC(N4CCCC4)CC3)cc2)cc1OCc1nc(CS(=O)(=O)c2ccccn2)no1 | – | % inhibition = 9 |
| Nc1ncc(-c2ccc(C(=O)N3CCC(N4CCCC4)CC3)cc2)cc1OCc1cc(-c2c(Cl)cccc2Cl)no1 | – | % inhibition = 14 |
| CC(=O)N(c1ccc(C)cc1)c1nc(COc2cc(-c3ccc(C(=O)N4CCC(N5CCCC5)CC4)cc3)cnc2N)cs1 | – | % inhibition = 9 |

| SMILES | inhibition at 1 µM [%] | % inhibition |
| --- | --- | --- |
| CC(Oc1cc(-c2ccc(C(=O)N3CCC(N4CCCC4)CC3)cc2)cnc1N)c1ccccc1 (stereo not drawn) | – | % inhibition = 10 |
| Nc1ncc(-c2ccc(C(=O)N3CCC(N4CCCC4)CC3)cc2)cc1OCc1cccc(OC(F)(F)F)c1 | – | % inhibition = 13 |
| Cc1cc(COc2cc(-c3ccc(C(=O)N4CCC(N5CCCC5)CC4)cc3)cnc2N)nc(-c2ccc(C(F)(F)F)cn2)n1 | – | % inhibition = 8 |
| Nc1ncc(-c2ccc(C(=O)N3CCC(N4CCCC4)CC3)cc2)cc1OCc1cc(F)ccc1Br | – | % inhibition = 24 |
| Cc1cc(C)cc(COc2cc(-c3ccc(C(=O)N4CCC(N5CCCC5)CC4)cc3)cnc2N)c1 | – | % inhibition = 14 |
| COc1cccc(COc2cc(-c3ccc(C(=O)N4CCC(N5CCCC5)CC4)cc3)cnc2N)c1 | – | % inhibition = 15 |
| Nc1ncc(-c2ccc(C(=O)N3CCC(N4CCCC4)CC3)cc2)cc1OCc1ccc(Cl)cc1 | – | % inhibition = 15 |
| Nc1ncc(-c2ccc(C(=O)N3CCC(N4CCCC4)CC3)cc2)cc1OCc1cccc(Cl)c1F | – | % inhibition = 28 |
| Nc1ncc(-c2ccc(C(=O)N3CCC(N4CCCC4)CC3)cc2)cc1OCc1ccc(Cl)c(Cl)c1 | – | % inhibition = 26 |
| Nc1ncc(-c2ccc(C(=O)N3CCC(N4CCCC4)CC3)cc2)cc1OCc1cc(F)c(F)cc1F | – | % inhibition = 12 |
| Nc1ncc(-c2ccc(C(=O)N3CCC(N4CCCC4)CC3)cc2)cc1OCc1ccc(F)c(F)c1F | – | % inhibition = 19 |
| Nc1ncc(-c2ccc(C(=O)N3CCC(N4CCCC4)CC3)cc2)cc1OCc1ccc(C(F)(F)F)cc1C(F)(F)F | – | % inhibition = 12 |
| Nc1ncc(-c2ccc(C(=O)N3CCC(N4CCCC4)CC3)cc2)cc1OCc1c(F)ccc(F)c1F | – | % inhibition = 30 |
| Nc1ncc(-c2ccc(C(=O)N3CCC(N4CCCC4)CC3)cc2)cc1OCc1ccc(C(F)(F)F)cc1 | – | % inhibition = 10 |
| Cc1cccc(COc2cc(-c3ccc(C(=O)N4CCC(N5CCCC5)CC4)cc3)cnc2N)c1F | – | % inhibition = 28 |
| CC(Oc1cc(-c2ccc(C(=O)N3CCC(N4CCCC4)CC3)cc2)cnc1N)c1ccccc1C(F)(F)F (stereo not drawn) | – | % inhibition = 21 |
| CC(=O)Nc1nc(COc2cc(-c3ccc(C(=O)N4CCC(N5CCCC5)CC4)cc3)cnc2N)cs1 | – | % inhibition = 9 |
| Nc1ncc(-c2ccc(C(=O)N3CCC(N4CCCC4)CC3)cc2)cc1OCc1ccccc1CS(=O)(=O)c1ccccc1 | – | % inhibition = 11 |
| Nc1ccc(-c2ccc(C(=O)N3CCC(N4CCCC4)CC3)cc2)cc1OC1OC(=O)c2ccccc21 (stereo not drawn) | – | % inhibition = 4 |
| Nc1ncc(-c2ccc(C(=O)N3CCC(N4CCCC4)CC3)cc2)cc1OCc1ccc(-c2csnn2)cc1 | – | % inhibition = 41 |
| Nc1ncc(-c2ccc(C(=O)N3CCC(N4CCCC4)CC3)cc2)cc1OCc1cc(F)cc2c1OCOC2 | – | % inhibition = 21 |

| SMILES | inhibition at 1 µM [%] | % inhibition |
| --- | --- | --- |
| CC(Oc1nc(-c2ccc(C(=O)N3CCC[C@H]3CN3CCCC3)cc2)cnc1N)c1c(Cl)cccc1Cl (stereo partly drawn) | – | % inhibition = 14 |
| Nc1ncc(-c2ccc(C(=O)N3CCC(N4CCCC4)CC3)cc2)cc1OCc1ccc(F)c(C(F)(F)F)c1 | – | % inhibition = 13 |
| Nc1ncc(-c2ccc(C(=O)N3CCC(N4CCCC4)CC3)cc2)cc1OCc1cc(F)cc(C(F)(F)F)c1 | – | % inhibition = 12 |
| Nc1ncc(-c2ccc(C(=O)N3CCC(N4CCCC4)CC3)cc2)cc1OCc1c(F)cccc1C(F)(F)F | – | % inhibition = 31 |
| Nc1ncc(-c2ccc(C(=O)N3CCC(N4CCCC4)CC3)cc2)cc1OCc1cc(F)c(F)c(F)c1 | – | % inhibition = 19 |
| Nc1ncc(-c2ccc(C(=O)N3CCC(N4CCCC4)CC3)cc2)cc1OCc1ccccc1OC(F)F | – | % inhibition = 27 |
| Nc1ncc(-c2ccc(C(=O)N3CCC(N4CCCC4)CC3)cc2)cc1OCc1ccc(C(F)(F)F)cc1F | – | % inhibition = 25 |
| Nc1ncc(-c2ccc(C(=O)N3CCC(N4CCCC4)CC3)cc2)cc1OCc1nc2ccccc2[nH]1 | – | % inhibition = 4 |
| Nc1ncc(-c2ccc(C(=O)N3CCC(N4CCCC4)CC3)cc2)cc1OCc1noc(-c2ccccc2)n1 | – | % inhibition = 16 |
| CC(C)Cc1noc(COc2cc(-c3ccc(C(=O)N4CCC(N5CCCC5)CC4)cc3)cnc2N)n1 | – | % inhibition = 12 |
| Nc1ncc(-c2ccc(C(=O)N3CCC(N4CCCC4)CC3)cc2)cc1OCc1nc(-c2ccccc2)n[nH]1 | – | % inhibition = 2 |
| Nc1ncc(-c2ccc(C(=O)N3CCC(N4CCCC4)CC3)cc2)cc1OCc1ccc(Cl)cc1Br | – | % inhibition = 28 |
| Cc1cnccc1COc1cc(-c2ccc(C(=O)N3CCC(N4CCCC4)CC3)cc2)cnc1N | – | % inhibition = 11 |
| CCc1nc(COc2cc(-c3ccc(C(=O)N4CCC(N5CCCC5)CC4)cc3)cnc2N)no1 | – | % inhibition = 5 |
| Nc1ncc(-c2ccc(C(=O)N3CCC(N4CCCC4)CC3)cc2)cc1OCc1nc(NC2CC2)c2ccccc2n1 | – | % inhibition = 6 |
| Nc1ncc(-c2ccc(C(=O)N3CCC(N4CCCC4)CC3)cc2)cc1OCc1nc(NCCO)c2ccccc2n1 | – | % inhibition = 7 |
| CCOC(=O)c1nc(COc2cc(-c3ccc(C(=O)N4CCC(N5CCCC5)CC4)cc3)cnc2N)no1 | – | % inhibition = 8 |
| CNC(=O)c1ccc(OC)c(-c2noc(OCc3cc(-c4ccc(C(=O)N5CCC(N6CCCC6)CC5)cc4)cnc3N)n2)c1 | – | % inhibition = 11 |
| Nc1ncc(-c2ccc(C(=O)N3CCC(N4CCCC4)CC3)cc2)cc1OCc1nc(-c2ccc(C(=O)N3CCCC3)cc2)no1 | – | % inhibition = 11 |
| Nc1ncc(-c2ccc(C(=O)N3CCC(N4CCCC4)CC3)cc2)cc1OCc1nc(-c2cccc(C(=O)Nc3ccc(F)cc3)c2)no1 | – | % inhibition = 64 |
| CC(C)NC(=O)c1ccc(-c2noc(COc3cc(-c4ccc(C(=O)N5CCC(N6CCCC6)CC5)cc4)cnc3N)n2)cc1 | – | % inhibition = 18 |

Same assay, conditions: Table 5; percent c-MET inhibition at 50 nM

| SMILES | inhibition at 0.05 µM [%] |
| --- | --- |
| COc1ccccc1CC(C)N(C)C(=O)c1ccc(-c2cnc(N)c(OC(C)c3c(Cl)ccc(F)c3Cl)c2)cc1 (stereo not drawn) | 55 |
| CC(Oc1cc(-c2ccc(C(=O)N3CCCC(CO)C3)cc2)cnc1N)c1c(Cl)ccc(F)c1Cl (stereo not drawn) | 84 |
| COc1ccc(C(NC(=O)c2ccc(-c3cnc(N)c(OC(C)c4c(Cl)ccc(F)c4Cl)c3)cc2)C2CC2)cc1 (stereo not drawn) | 67 |
| CC(=O)N(C)C1CCN(C(=O)c2ccc(-c3cnc(N)c(OC(C)c4c(Cl)ccc(F)c4Cl)c3)cc2)C1 (stereo not drawn) | 70 |
| CC(=O)NC1CCN(C(=O)c2ccc(-c3cnc(N)c(OC(C)c4c(Cl)ccc(F)c4Cl)c3)cc2)C1 (stereo not drawn) | 77 |
| CC(Cc1ccc(Cl)cc1)NC(=O)c1ccc(-c2cnc(N)c(OC(C)c3c(Cl)ccc(F)c3Cl)c2)cc1 (stereo not drawn) | 58 |
| CC(Oc1cc(-c2ccc(C(=O)N[C@H]3C[C@@H]3c3ccccc3)cc2)cnc1N)c1c(Cl)ccc(F)c1Cl (stereo partly drawn) | 65 |
| CC(Oc1cc(-c2ccc(C(=O)N[C@H](CO)C(C)C)cc2)cnc1N)c1c(Cl)ccc(F)c1Cl (stereo partly drawn) | 74 |
| CC(Oc1cc(-c2ccc(C(=O)NC[C@@H]3CCCC[C@H]3O)cc2)cnc1N)c1c(Cl)ccc(F)c1Cl (stereo partly drawn) | 67 |
| CC(Oc1cc(-c2ccc(C(=O)N3CCNC(=O)C3C)cc2)cnc1N)c1c(Cl)ccc(F)c1Cl (stereo not drawn) | 86 |
| CC(Oc1cc(-c2ccc(C(=O)NC[C@H](O)c3ccccc3)cc2)cnc1N)c1c(Cl)ccc(F)c1Cl (stereo partly drawn) | 69 |
| CC(Oc1cc(-c2ccc(C(=O)NC(CO)C(C)C)cc2)cnc1N)c1c(Cl)ccc(F)c1Cl (stereo not drawn) | 65 |
